Experimental data: the NIST ThermoML archive (doi:10.1016/j.jct.2014.01.006)
“And” between values parts separate entries of the source, which are not always exact repeats. Equal values may be shown once. ± gives the expanded uncertainty stated by the source.

Legend:
[1] = Molar enthalpy of transition or fusion; settings: Crystal; Adiabatic calorimetry
[2] = molar heat capacity at saturation pressure
[3] = for vapor or sublimation pressure: Liquid, Ebulliometric method (Recirculating still); for Triple point temperature: Adiabatic calorimetry

c1ccc(-c2ccc3ccccc3c2)cc1 [2-phenylnaphthalene]
Settings	Molar enthalpy of transition or fusion [kJ/mol]
[1]	22.62 ± 0.024

[2]
Settings	molar heat capacity
5.559 K, Metastable crystal, Vacuum adiabatic calorimetry	0.7317 ± 0.025 J/K/mol
6.48 K, Metastable crystal, Vacuum adiabatic calorimetry	1.172 ± 0.042 J/K/mol
7.437 K, Metastable crystal, Vacuum adiabatic calorimetry	1.821 ± 0.058 J/K/mol
8.415 K, Metastable crystal, Vacuum adiabatic calorimetry	2.519 ± 0.083 J/K/mol
9.445 K, Metastable crystal, Vacuum adiabatic calorimetry	3.484 ± 0.11 J/K/mol
10.55 K, Metastable crystal, Vacuum adiabatic calorimetry	4.639 ± 0.042 J/K/mol
11.76 K, Metastable crystal, Vacuum adiabatic calorimetry	5.912 ± 0.05 J/K/mol
13.12 K, Metastable crystal, Vacuum adiabatic calorimetry	7.541 ± 0.067 J/K/mol
14.58 K, Metastable crystal, Vacuum adiabatic calorimetry	9.304 ± 0.075 J/K/mol
16.16 K, Metastable crystal, Vacuum adiabatic calorimetry	11.42 ± 0.083 J/K/mol
17.89 K, Metastable crystal, Vacuum adiabatic calorimetry	13.64 ± 0.1 J/K/mol
19.78 K, Metastable crystal, Vacuum adiabatic calorimetry	16.13 ± 0.11 J/K/mol
21.84 K, Metastable crystal, Vacuum adiabatic calorimetry	18.86 ± 0.12 J/K/mol
24.08 K, Metastable crystal, Vacuum adiabatic calorimetry	21.79 ± 0.14 J/K/mol
26.55 K, Metastable crystal, Vacuum adiabatic calorimetry	25.04 ± 0.15 J/K/mol
29.3 K, Metastable crystal, Vacuum adiabatic calorimetry	28.54 ± 0.17 J/K/mol
32.36 K, Metastable crystal, Vacuum adiabatic calorimetry	32.33 ± 0.083 J/K/mol
35.77 K, Metastable crystal, Vacuum adiabatic calorimetry	36.35 ± 0.091 J/K/mol
39.57 K, Metastable crystal, Vacuum adiabatic calorimetry	40.62 ± 0.1 J/K/mol
43.81 K, Metastable crystal, Vacuum adiabatic calorimetry	45.16 ± 0.11 J/K/mol
48.55 K, Metastable crystal, Vacuum adiabatic calorimetry	49.75 ± 0.11 J/K/mol
53.87 K, Metastable crystal, Vacuum adiabatic calorimetry	54.71 ± 0.12 J/K/mol
54.57 K, Metastable crystal, Vacuum adiabatic calorimetry	55.24 ± 0.12 J/K/mol
59.82 K, Metastable crystal, Vacuum adiabatic calorimetry	59.78 ± 0.12 J/K/mol
59.83 K, Metastable crystal, Vacuum adiabatic calorimetry	59.82 ± 0.13 J/K/mol
65.64 K, Metastable crystal, Vacuum adiabatic calorimetry	64.42 ± 0.13 J/K/mol
66.41 K, Metastable crystal, Vacuum adiabatic calorimetry	64.99 ± 0.14 J/K/mol
72.14 K, Metastable crystal, Vacuum adiabatic calorimetry	69.36 ± 0.14 J/K/mol
79.33 K, Metastable crystal, Vacuum adiabatic calorimetry	74.52 ± 0.15 J/K/mol
84.66 K, Metastable crystal, Vacuum adiabatic calorimetry	78.26 ± 0.16 J/K/mol
87.38 K, Metastable crystal, Vacuum adiabatic calorimetry	80.02 ± 0.17 J/K/mol
91.53 K, Metastable crystal, Vacuum adiabatic calorimetry	82.9 ± 0.22 J/K/mol
96.29 K, Metastable crystal, Vacuum adiabatic calorimetry	86.19 ± 0.22 J/K/mol
100.11 K, Metastable crystal, Vacuum adiabatic calorimetry	88.71 ± 0.22 J/K/mol
109.67 K, Metastable crystal, Vacuum adiabatic calorimetry	95.07 ± 0.23 J/K/mol
119.51 K, Metastable crystal, Vacuum adiabatic calorimetry	101.67 ± 0.23 J/K/mol
129.29 K, Metastable crystal, Vacuum adiabatic calorimetry	108.34 ± 0.24 J/K/mol
139.13 K, Metastable crystal, Vacuum adiabatic calorimetry	115.15 ± 0.25 J/K/mol
149.04 K, Metastable crystal, Vacuum adiabatic calorimetry	122.22 ± 0.26 J/K/mol
159.05 K, Metastable crystal, Vacuum adiabatic calorimetry	129.45 ± 0.27 J/K/mol
169.13 K, Metastable crystal, Vacuum adiabatic calorimetry	137.04 ± 0.27 J/K/mol
179.22 K, Metastable crystal, Vacuum adiabatic calorimetry	144.69 ± 0.28 J/K/mol
189.28 K, Metastable crystal, Vacuum adiabatic calorimetry	152.55 ± 0.29 J/K/mol
199.33 K, Metastable crystal, Vacuum adiabatic calorimetry	160.58 ± 0.3 J/K/mol
210.43 K, Metastable crystal, Vacuum adiabatic calorimetry	169.63 ± 0.32 J/K/mol
222.54 K, Metastable crystal, Vacuum adiabatic calorimetry	179.67 ± 0.32 J/K/mol
234.7 K, Metastable crystal, Vacuum adiabatic calorimetry	190.12 ± 0.33 J/K/mol
246.9 K, Metastable crystal, Vacuum adiabatic calorimetry	200.49 ± 0.35 J/K/mol
260.13 K, Metastable crystal, Vacuum adiabatic calorimetry	212.11 ± 0.36 J/K/mol
274.34 K, Metastable crystal, Vacuum adiabatic calorimetry	224.81 ± 0.37 J/K/mol
281.75 K, Metastable crystal, Vacuum adiabatic calorimetry	231.62 ± 0.38 J/K/mol
287.18 K, Metastable crystal, Vacuum adiabatic calorimetry	236.87 ± 0.39 J/K/mol
288.45 K, Metastable crystal, Vacuum adiabatic calorimetry	238 ± 0.39 J/K/mol
288.88 K, Metastable crystal, Vacuum adiabatic calorimetry	238.28 ± 0.39 J/K/mol
289.67 K, Metastable crystal, Vacuum adiabatic calorimetry	239.32 ± 0.39 J/K/mol
290.86 K, Metastable crystal, Vacuum adiabatic calorimetry	240.77 ± 0.39 J/K/mol
297.62 K, Metastable crystal, Vacuum adiabatic calorimetry	247.26 ± 0.4 J/K/mol
302.22 K, Metastable crystal, Vacuum adiabatic calorimetry	251.81 ± 0.41 J/K/mol
303.66 K, Metastable crystal, Vacuum adiabatic calorimetry	253.46 ± 0.41 J/K/mol
304.26 K, Metastable crystal, Vacuum adiabatic calorimetry	253.82 ± 0.41 J/K/mol
305.95 K, Metastable crystal, Vacuum adiabatic calorimetry	255.73 ± 0.42 J/K/mol
316.27 K, Metastable crystal, Vacuum adiabatic calorimetry	265.74 ± 0.42 J/K/mol
319.32 K, Metastable crystal, Vacuum adiabatic calorimetry	269.07 ± 0.42 J/K/mol
319.63 K, Metastable crystal, Vacuum adiabatic calorimetry	269.43 ± 0.42 J/K/mol
323.18 K, Metastable crystal, Vacuum adiabatic calorimetry	273.51 ± 0.43 J/K/mol
328.64 K, Metastable crystal, Vacuum adiabatic calorimetry	281.65 ± 0.44 J/K/mol
334.1 K, Crystal, Vacuum adiabatic calorimetry	295.45 ± 0.46 J/K/mol
339.55 K, Crystal, Vacuum adiabatic calorimetry	300.3 ± 0.47 J/K/mol
340.55 K, Crystal, Vacuum adiabatic calorimetry	301.83 ± 0.47 J/K/mol
345.85 K, Crystal, Vacuum adiabatic calorimetry	308.66 ± 0.47 J/K/mol
346.7 K, Crystal, Vacuum adiabatic calorimetry	310.38 ± 0.47 J/K/mol
352.89 K, Crystal, Vacuum adiabatic calorimetry	319.98 ± 0.49 J/K/mol
354.52 K, Crystal, Vacuum adiabatic calorimetry	323.81 ± 0.49 J/K/mol
355.25 K, Crystal, Vacuum adiabatic calorimetry	323.51 ± 0.49 J/K/mol
356.41 K, Crystal, Vacuum adiabatic calorimetry	326.01 ± 0.5 J/K/mol
360.85 K, Crystal, Vacuum adiabatic calorimetry	334.71 ± 0.51 J/K/mol
364.78 K, Crystal, Vacuum adiabatic calorimetry	343.22 ± 0.52 J/K/mol
365.47 K, Crystal, Vacuum adiabatic calorimetry	344.57 ± 0.52 J/K/mol
365.99 K, Crystal, Vacuum adiabatic calorimetry	347.25 ± 0.53 J/K/mol
368.76 K, Crystal, Vacuum adiabatic calorimetry	353.17 ± 0.53 J/K/mol
381.15 K, Liquid, Vacuum adiabatic calorimetry	364.06 ± 0.54 J/K/mol
381.64 K, Liquid, Vacuum adiabatic calorimetry	364.18 ± 0.54 J/K/mol
382.95 K, Liquid, Vacuum adiabatic calorimetry	365.06 ± 0.54 J/K/mol
388.39 K, Liquid, Vacuum adiabatic calorimetry	368.05 ± 0.55 J/K/mol
390.22 K, Liquid, Vacuum adiabatic calorimetry	369.13 ± 0.55 J/K/mol
405.19 K, Liquid, Vacuum adiabatic calorimetry	377.51 ± 0.56 J/K/mol
410.1 K, Liquid, Small sample (50 mg) DSC	380.3 ± 9.3 J/K/mol and 382.63 ± 9.4 J/K/mol
422.04 K, Liquid, Vacuum adiabatic calorimetry	386.86 ± 0.57 J/K/mol
430 K, Liquid, Small sample (50 mg) DSC	394.6 ± 9.6 J/K/mol and 391.03 ± 9.6 J/K/mol
436.24 K, Liquid, Vacuum adiabatic calorimetry	394.72 ± 0.57 J/K/mol
450 K, Liquid, Small sample (50 mg) DSC	405.58 ± 9.9 J/K/mol and 401.51 ± 9.8 J/K/mol
470.1 K, Liquid, Small sample (50 mg) DSC	411.15 ± 10 J/K/mol and 413.48 ± 10 J/K/mol
490 K, Liquid, Small sample (50 mg) DSC	424.7 ± 10 J/K/mol and 423.46 ± 10 J/K/mol
510 K, Liquid, Small sample (50 mg) DSC	434.93 ± 11 J/K/mol and 427.36 ± 10 J/K/mol
530.1 K, Liquid, Small sample (50 mg) DSC	446.82 ± 11 J/K/mol and 444.24 ± 11 J/K/mol
550.1 K, Liquid, Small sample (50 mg) DSC	457.21 ± 11 J/K/mol and 455.97 ± 11 J/K/mol
570.1 K, Liquid, Small sample (50 mg) DSC	468.27 ± 11 J/K/mol and 467.27 ± 11 J/K/mol
590.1 K, Liquid, Small sample (50 mg) DSC	477.92 ± 12 J/K/mol and 476.09 ± 12 J/K/mol
610.1 K, Liquid, Small sample (50 mg) DSC	484.48 ± 12 J/K/mol and 484.15 ± 12 J/K/mol

[3]
Settings	Triple point temperature [K]	vapor or sublimation pressure [kPa]
482.85 K	–	1.996 ± 0.0082
502.83 K	–	3.998 ± 0.0084
511.75 K	–	5.335 ± 0.0089
524.93 K	–	7.993 ± 0.0095
534.9 K	–	10.67 ± 0.01
542.89 K	–	13.33 ± 0.011
551.2 K	–	16.66 ± 0.013
558.16 K	–	19.95 ± 0.014
567.23 K	–	25.03 ± 0.016
576.35 K	–	31.16 ± 0.018
585.57 K	–	38.56 ± 0.022
594.82 K	–	47.36 ± 0.025
604.12 K	–	57.8 ± 0.027
Crystal	374.77 ± 0.039	–
Metastable crystal	331.4 ± 0.1	–
